Test results as given in US20060148030A1, “Nuclear receptor err y 3” (FUJISAWA PHARMACEUTICAL CO., LTD, priority 2002, published 2006).

B1: ERRγ3: novel ERRγ isoform, nuclear receptor protein of 396 amino acids (SEQ ID NO: 2) lacking part of the DNA binding domain (protein, listed as Homo sapiens)
chain: MSNKDRHIDSSCSSFIKTEPSSPASLTDSVNHHSPGGSSDASGSYSSTMNGHQNGLDSPPLYPSAPILGGSGPVRKLYDDCSSTIVEDPQTKCEYMLNSMPKRLCLVCGDIASGYHYGVASCEACKAFFKRTIQGVRLDRVRGGRQKYKRRIDAENSPYLNPQLAQPAKKPYNKIVSHLLVAEPEKIYAMPDPTVPDSDIKALTTLCDLADRELVVIIGWAKHIPGFSTLSLADQMSLLQSAWMEILILGVVYRSLSFEDELVYADDYIMDEDQSKLAGLLDLNNAILQLVKKYKSMKLEKEEFVTLKAIALANSDSMHIEDVEAVQKLQDVLHEALQDYEAGQHMEDPRRAGKMLMTLPLLRQTSTKAVQHFYNIKLEGKVPMHKLFLEMLEAKV

Assays:
ERRγ1 = target: T1, ERRγ1 (Homo sapiens, UniProt P62508); settings: stated as known property; cited from earlier work
T1 sequence (P62508 1-435 isoform P62508-2): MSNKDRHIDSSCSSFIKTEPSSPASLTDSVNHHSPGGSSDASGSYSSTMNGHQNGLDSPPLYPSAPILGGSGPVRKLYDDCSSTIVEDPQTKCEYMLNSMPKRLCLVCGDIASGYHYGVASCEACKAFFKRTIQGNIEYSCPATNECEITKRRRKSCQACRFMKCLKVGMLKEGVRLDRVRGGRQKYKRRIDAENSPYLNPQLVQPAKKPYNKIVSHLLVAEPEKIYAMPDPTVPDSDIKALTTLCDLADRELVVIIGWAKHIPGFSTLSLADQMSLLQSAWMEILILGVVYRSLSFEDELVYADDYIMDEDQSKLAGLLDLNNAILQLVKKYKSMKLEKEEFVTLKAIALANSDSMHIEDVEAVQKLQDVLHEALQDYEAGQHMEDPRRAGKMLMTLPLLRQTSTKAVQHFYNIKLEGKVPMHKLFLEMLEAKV

RARα = target: T2, RARα (Homo sapiens, UniProt P10276); experiment: Reporter gene assay, ERRγ3 coexisted with RARα, pGVP2-RARE in CV-1 cells; format: cell-based; settings: 5×10^−8 M retinoic acid, FIG. 22
T2 construct: expressed in transfected cells; host or cells: CV-1 (African green monkey kidney)
T2 sequence (P10276 1-462): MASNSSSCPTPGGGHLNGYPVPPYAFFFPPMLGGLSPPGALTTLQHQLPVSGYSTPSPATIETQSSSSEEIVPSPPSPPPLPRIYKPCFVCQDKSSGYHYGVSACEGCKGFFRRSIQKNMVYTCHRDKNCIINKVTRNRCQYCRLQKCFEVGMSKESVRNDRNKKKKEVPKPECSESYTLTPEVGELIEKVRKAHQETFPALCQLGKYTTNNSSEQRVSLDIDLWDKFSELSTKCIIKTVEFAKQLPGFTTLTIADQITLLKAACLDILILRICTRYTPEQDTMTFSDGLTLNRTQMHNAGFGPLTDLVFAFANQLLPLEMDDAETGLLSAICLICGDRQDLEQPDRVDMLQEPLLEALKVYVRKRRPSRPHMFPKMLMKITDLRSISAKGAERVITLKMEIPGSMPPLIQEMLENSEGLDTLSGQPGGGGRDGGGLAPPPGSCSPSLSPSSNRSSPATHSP
T2 sequence (P19793 1-462 partner): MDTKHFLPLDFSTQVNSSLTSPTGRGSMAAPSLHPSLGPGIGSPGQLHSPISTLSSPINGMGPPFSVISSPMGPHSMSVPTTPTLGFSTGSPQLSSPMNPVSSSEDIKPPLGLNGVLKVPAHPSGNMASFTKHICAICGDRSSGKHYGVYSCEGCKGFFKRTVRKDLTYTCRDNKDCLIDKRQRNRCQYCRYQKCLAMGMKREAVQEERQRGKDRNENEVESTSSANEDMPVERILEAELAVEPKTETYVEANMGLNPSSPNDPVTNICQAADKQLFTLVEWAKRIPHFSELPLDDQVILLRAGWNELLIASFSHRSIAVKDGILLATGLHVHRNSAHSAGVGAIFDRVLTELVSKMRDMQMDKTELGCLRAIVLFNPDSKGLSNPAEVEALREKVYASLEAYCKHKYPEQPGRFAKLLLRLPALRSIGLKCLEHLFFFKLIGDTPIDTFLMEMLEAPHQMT
Source text: The reporter gene assay was used to evaluate the effect of ligand 4-hydroxytamoxifen and 5×10^−8 M of retinoic acid on the function of ERRγ3 in enhancing the transcriptional activation function of retinoic acid receptor (RAR) (FIG. 22). RAR is a nuclear receptor belonging to group B of subfamily 1.
CV-1 cells (a cell line derived from the kidney of African green monkey) were used as hosts in the reporter gene assay. The luciferase reporter plasmid pGVP2-RARE and the expression plasmids for ERRγ3 and RARα: pcDNA3.1-ERRγ3 and pcDNA3.1-RARα, respectively, or alternatively the expression plasmid for both nuclear receptors, were transfected into the host cells. […]
Transfection was performed as follows: CV-1 cells were resuspended in DMEM supplemented with 10% fetal bovine serum, 2000 U/l of penicillin G, and 100 mg/l of streptomycin to a concentration of 2×10^5 cells/2.5 ml. […] 1 μg of each of the expression plasmids for the transcription factors, the luciferase reporter plasmid, and another luciferase reporter plasmid used for normalization of the measured values (pRL-TK), were dissolved in Opti-MEM (Gibco BRL), to a total of 150 μl. […] Luciferase activity was measured using the Dual-Luciferase™ Reporter Assay System (Promega). […] The protocol for measurement was as follows: 50 μl of Luciferase Assay Reagent II was added to each well, stirred for 0.3 seconds, and measured for one second. […]

Row | Molecule | inhibition of the transcriptional activation function of ERRγ1 (ERRγ1) | modifying effect on the transcriptional stimulation activity of RAR (RARα)
1 | 4-hydroxytamoxifen [reference compound] | inhibiting their transcriptional activation function | 
2 | B1 |  | did not show a significant modifying effect
